This note sets out measurements from patent EP0581464A1, “Ester derivatives and pharmaceutical compositions containing them” (ZENECA LIMITED, priority 1992, dated 1994).

This assay has as its target T1, 5-LO (Homo sapiens, UniProt P09917).
T1 construct: incubating a test compound with heparinised human blood, prior to challenge with the calcium ionophore A23187; endogenous in cells; host or cells: human whole blood (blood cells)
T1 sequence (P09917 1-674): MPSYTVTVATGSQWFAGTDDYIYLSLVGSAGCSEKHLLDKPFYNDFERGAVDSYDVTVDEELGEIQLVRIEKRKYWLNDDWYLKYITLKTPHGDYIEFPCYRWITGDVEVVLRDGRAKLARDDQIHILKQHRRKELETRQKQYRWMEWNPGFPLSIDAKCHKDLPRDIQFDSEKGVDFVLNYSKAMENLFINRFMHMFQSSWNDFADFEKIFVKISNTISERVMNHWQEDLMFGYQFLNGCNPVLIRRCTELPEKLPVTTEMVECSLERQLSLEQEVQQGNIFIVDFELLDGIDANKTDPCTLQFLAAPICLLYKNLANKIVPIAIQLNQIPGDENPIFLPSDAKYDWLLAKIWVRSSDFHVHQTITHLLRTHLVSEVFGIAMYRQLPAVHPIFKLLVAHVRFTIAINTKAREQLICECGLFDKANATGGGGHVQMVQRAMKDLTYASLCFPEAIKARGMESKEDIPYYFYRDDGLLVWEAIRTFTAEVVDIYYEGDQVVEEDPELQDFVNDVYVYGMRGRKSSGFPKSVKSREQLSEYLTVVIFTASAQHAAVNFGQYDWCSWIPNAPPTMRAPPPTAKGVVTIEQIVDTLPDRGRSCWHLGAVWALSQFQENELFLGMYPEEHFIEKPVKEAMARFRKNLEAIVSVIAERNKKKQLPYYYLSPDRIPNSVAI
The assay can be described thus: Test a): in vitro heparinised human blood challenged with calcium ionophore A23187, radioimmunoassay of LTB4. In kind it is cell-based. As to conditions: A23187 challenge, read-out: IC50 against LTB4 in test (a). The source says: As stated previously, the compounds of the formula I are inhibitors of the enzyme 5-LO. […] J. Pharmacol. 1985, 84, 34P) which involve the use of a protein-LTB4 conjugate produced using the procedure of Young et alia (Prostaglandins, 1983, 26(4), 605-613). The effects of a test compound on the enzyme cyclooxygenase (which is involved in the alternative metabolic pathway for arachidonic acid and gives rise to prostaglandins, thromboxanes and related metabolites) may be measured at the same time using the specific radioimmunoassay for thromboxane B2(TxB2) described by Carey and Forder (see above). This test provides an indication of the effects of a test compound against 5-LO and also cyclooxygenase in the presence of blood cells and proteins. It permits the selectivity of the inhibitory effect on 5-LO or cyclooxygenase to be assessed. • b) An ex vivo assay system, which is a variation of test a) above, involving administration to a group of rats of a test compound (usually orally as the suspension produced when a solution of the test compound in dimethylsulphoxide is added to carboxymethylcellulose), blood collection, heparinisation, challenge with A23187 and radioimmunoassay of LTB4 and TxB2. […]

Take `COC1(/C(N)=C/C(=O)OCc2ccc3ccccc3c2)CCOCC1` [Example 1, naphth-2-ylmethyl (Z)-3-amino-3-(4-methoxytetrahydropyran-4-yi)prop-2-enoate]: the IC50 worked out at 0.07 µM.
With `CO/N=C(\C)c1ccc(COC(=O)/C=C(\N)C2(OC)CCOCC2)cc1` [Example 2, 4-[(E)-1-methoxyiminoethyl]benzyl (Z)-3-amino-3-(4-methoxytetrahydropyran-4-yl)prop-2-enoate] the figure was 9.36 µM.
